Key:
Mec-1 cells = test: Cell growth curves over 12 days, Mec-1; format: cell-based; details: for anti-proliferative potency compared to PRT382: Mec-1
Protocol: (§1) Live cells/mL were counted on days 3, 6, 10, and 12. […] The split factor was calculated at indicated time points by dividing the counted cells/mL by 3E5. Cell growth was extrapolated over time by multiplying the subsequent cell count by the previous split factor. Cell growth is plotted as fold change relative to DMSO-treated cells.

HG3 cells = test: Cell growth curves over 12 days, HG3; format: cell-based; details: for anti-proliferative potency compared to PRT382: HG3
Protocol: as §1

## Nc1ncnc2c1ccn2[C@@H]1O[C@H]([C@H](O)c2ccccc2)[C@@H](O)[C@H]1O [LLY-283]
Mec-1 cells; Mec-1, 1 nM, day 0
  Rep 1 Live Cells [Fold Change]: 1 Fold Change
  Rep 2 Live Cells [Fold Change]: 1 Fold Change
Mec-1 cells; Mec-1, 1 nM, day 3
  Rep 1 Live Cells [Fold Change]: 7.4 Fold Change
  Rep 2 Live Cells [Fold Change]: 6.83 Fold Change
Mec-1 cells; Mec-1, 1 nM, day 6
  Rep 1 Live Cells [Fold Change]: 50.6 Fold Change
  Rep 2 Live Cells [Fold Change]: 41.9 Fold Change
Mec-1 cells; Mec-1, 1 nM, day 10
  Rep 1 Live Cells [Fold Change]: 397 Fold Change
  Rep 2 Live Cells [Fold Change]: 446 Fold Change
Mec-1 cells; Mec-1, 1 nM, day 12
  Rep 1 Live Cells [Fold Change]: 1480 Fold Change
  Rep 2 Live Cells [Fold Change]: 1580 Fold Change
Mec-1 cells; Mec-1, 10 nM, day 0
  Rep 1 Live Cells [Fold Change]: 1 Fold Change
  Rep 2 Live Cells [Fold Change]: 1 Fold Change
Mec-1 cells; Mec-1, 10 nM, day 3
  Rep 1 Live Cells [Fold Change]: 6.77 Fold Change
  Rep 2 Live Cells [Fold Change]: 6.33 Fold Change
Mec-1 cells; Mec-1, 10 nM, day 6
  Rep 1 Live Cells [Fold Change]: 30.7 Fold Change
  Rep 2 Live Cells [Fold Change]: 34 Fold Change
Mec-1 cells; Mec-1, 10 nM, day 10
  Rep 1 Live Cells [Fold Change]: 156 Fold Change
  Rep 2 Live Cells [Fold Change]: 260 Fold Change
Mec-1 cells; Mec-1, 10 nM, day 12
  Rep 1 Live Cells [Fold Change]: 568 Fold Change
  Rep 2 Live Cells [Fold Change]: 278 Fold Change
Mec-1 cells; Mec-1, 100 nM, day 0
  Rep 1 Live Cells [Fold Change]: 1 Fold Change
  Rep 2 Live Cells [Fold Change]: 1 Fold Change
Mec-1 cells; Mec-1, 100 nM, day 3
  Rep 1 Live Cells [Fold Change]: 4.6 Fold Change
  Rep 2 Live Cells [Fold Change]: 4.47 Fold Change
Mec-1 cells; Mec-1, 100 nM, day 6
  Rep 1 Live Cells [Fold Change]: 6.46 Fold Change
  Rep 2 Live Cells [Fold Change]: 5.94 Fold Change
Mec-1 cells; Mec-1, 100 nM, day 10
  Rep 1 Live Cells [Fold Change]: 4.1 Fold Change
  Rep 2 Live Cells [Fold Change]: 4.16 Fold Change
Mec-1 cells; Mec-1, 100 nM, day 12
  Rep 1 Live Cells [Fold Change]: 2.4 Fold Change
  Rep 2 Live Cells [Fold Change]: 2.8 Fold Change
Mec-1 cells; Mec-1, 1 µM, day 0
  Rep 1 Live Cells [Fold Change]: 1 Fold Change
  Rep 2 Live Cells [Fold Change]: 1 Fold Change
Mec-1 cells; Mec-1, 1 µM, day 3
  Rep 1 Live Cells [Fold Change]: 3.67 Fold Change
  Rep 2 Live Cells [Fold Change]: 4.57 Fold Change
Mec-1 cells; Mec-1, 1 µM, day 6
  Rep 1 Live Cells [Fold Change]: 4.12 Fold Change
  Rep 2 Live Cells [Fold Change]: 5.92 Fold Change
Mec-1 cells; Mec-1, 1 µM, day 10
  Rep 1 Live Cells [Fold Change]: 2.43 Fold Change
  Rep 2 Live Cells [Fold Change]: 2.13 Fold Change
Mec-1 cells; Mec-1, 1 µM, day 12
  Rep 1 Live Cells [Fold Change]: 1.89 Fold Change
  Rep 2 Live Cells [Fold Change]: 1.46 Fold Change
Mec-1 cells; high doses (1µM)
  anti-proliferative potency compared to PRT382: similar
Mec-1 cells; lower doses (10nM, 100nM)
  anti-proliferative potency compared to PRT382: more potent
HG3 cells; HG3, 1 nM, day 0
  Rep 1 Live Cells [Fold Change]: 1 Fold Change
  Rep 2 Live Cells [Fold Change]: 1 Fold Change
HG3 cells; HG3, 1 nM, day 3
  Rep 1 Live Cells [Fold Change]: 6.4 Fold Change
  Rep 2 Live Cells [Fold Change]: 6.4 Fold Change
HG3 cells; HG3, 1 nM, day 6
  Rep 1 Live Cells [Fold Change]: 45.44 Fold Change
  Rep 2 Live Cells [Fold Change]: 39.4667 Fold Change
HG3 cells; HG3, 1 nM, day 10
  Rep 1 Live Cells [Fold Change]: 270.368 Fold Change
  Rep 2 Live Cells [Fold Change]: 299.947 Fold Change
HG3 cells; HG3, 1 nM, day 12
  Rep 1 Live Cells [Fold Change]: 973.325 Fold Change
  Rep 2 Live Cells [Fold Change]: 1379.76 Fold Change
HG3 cells; HG3, 10 nM, day 0
  Rep 1 Live Cells [Fold Change]: 1 Fold Change
  Rep 2 Live Cells [Fold Change]: 1 Fold Change
HG3 cells; HG3, 10 nM, day 3
  Rep 1 Live Cells [Fold Change]: 6.167 Fold Change
  Rep 2 Live Cells [Fold Change]: 6.2 Fold Change
HG3 cells; HG3, 10 nM, day 6
  Rep 1 Live Cells [Fold Change]: 34.3278 Fold Change
  Rep 2 Live Cells [Fold Change]: 39.4733 Fold Change
HG3 cells; HG3, 10 nM, day 10
  Rep 1 Live Cells [Fold Change]: 260.891 Fold Change
  Rep 2 Live Cells [Fold Change]: 335.523 Fold Change
HG3 cells; HG3, 10 nM, day 12
  Rep 1 Live Cells [Fold Change]: 755.715 Fold Change
  Rep 2 Live Cells [Fold Change]: 1174.33 Fold Change
HG3 cells; HG3, 100 nM, day 0
  Rep 1 Live Cells [Fold Change]: 1 Fold Change
  Rep 2 Live Cells [Fold Change]: 1 Fold Change
HG3 cells; HG3, 100 nM, day 3
  Rep 1 Live Cells [Fold Change]: 5.133 Fold Change
  Rep 2 Live Cells [Fold Change]: 5.6 Fold Change
HG3 cells; HG3, 100 nM, day 6
  Rep 1 Live Cells [Fold Change]: 5.048 Fold Change
  Rep 2 Live Cells [Fold Change]: 7.691 Fold Change
HG3 cells; HG3, 100 nM, day 10
  Rep 1 Live Cells [Fold Change]: 6.991 Fold Change
  Rep 2 Live Cells [Fold Change]: 12.0359 Fold Change
HG3 cells; HG3, 100 nM, day 12
  Rep 1 Live Cells [Fold Change]: 6.651 Fold Change
  Rep 2 Live Cells [Fold Change]: 12.2598 Fold Change
HG3 cells; HG3, 1 µM, day 0
  Rep 1 Live Cells [Fold Change]: 1 Fold Change
  Rep 2 Live Cells [Fold Change]: 1 Fold Change
HG3 cells; HG3, 1 µM, day 3
  Rep 1 Live Cells [Fold Change]: 4.533 Fold Change
  Rep 2 Live Cells [Fold Change]: 5.967 Fold Change
HG3 cells; HG3, 1 µM, day 6
  Rep 1 Live Cells [Fold Change]: 3.083 Fold Change
  Rep 2 Live Cells [Fold Change]: 6.961 Fold Change
HG3 cells; HG3, 1 µM, day 10
  Rep 1 Live Cells [Fold Change]: 2.4 Fold Change
  Rep 2 Live Cells [Fold Change]: 7.031 Fold Change
HG3 cells; HG3, 1 µM, day 12
  Rep 1 Live Cells [Fold Change]: 1.832 Fold Change
  Rep 2 Live Cells [Fold Change]: 4.873 Fold Change
HG3 cells; high doses (1µM)
  anti-proliferative potency compared to PRT382: similar
HG3 cells; lower doses (10nM, 100nM)
  anti-proliferative potency compared to PRT382: more potent

— article PMC9823097, “Dysregulation of PRMT5 in chronic lymphocytic leukemia promotes progression with high risk of Richter’s transformation” (Nature Communications, 2023)
